Results taken from the NIST ThermoML archive (doi:10.1016/j.jct.2010.03.002).
Numbers after ± are expanded uncertainties.

Key:
[1] = 101 kPa, Liquid; for viscosity: Capillary tube (Ostwald / Ubbelohde) method; for mass density: Vibrating tube method
[2] = xn = mol fraction of the nth substance listed; details: 101 kPa, Liquid, x1 = 1; for viscosity: Capillary tube (Ostwald / Ubbelohde) method; for mass density: Vibrating tube method

Row | Structure (SMILES) | viscosity ([1]; 293.15 K) | viscosity ([1]; 303.15 K) | viscosity ([1]; 313.15 K) | viscosity ([1]; 323.15 K) | mass density ([1]; 323.15 K) | viscosity ([1]; 333.15 K) | mass density ([1]; 333.15 K) | mass density ([1]; 293.15 K) | mass density ([1]; 303.15 K) | mass density ([1]; 313.15 K) | viscosity ([2]; 293.15 K) | viscosity ([2]; 303.15 K) | viscosity ([2]; 313.15 K) | viscosity ([2]; 323.15 K) | mass density ([2]; 323.15 K) | viscosity ([2]; 333.15 K) | mass density ([2]; 333.15 K)
1 | O [water] | 1.304 ± 0.012 mPa·s | 1.002 ± 0.01 mPa·s | 0.653 ± 0.007 mPa·s | 0.544 ± 0.005 mPa·s | 988 ± 0.1 kg/m3 | 0.467 ± 0.005 mPa·s | 983.2 ± 0.1 kg/m3 |  |  |  |  |  |  |  |  |  | 
2 | CCCCCCn1cc[n+](C)c1.[Br-] [3-hexyl-1-methyl-1H-imidazolium bromide] | 6936 ± 750 mPa·s | 2239 ± 200 mPa·s | 851.65 ± 56 mPa·s | 512.14 ± 27 mPa·s | 1205.7 ± 1.7 kg/m3 | 350.69 ± 16 mPa·s | 1198.6 ± 1.6 kg/m3 | 1227.4 ± 1.7 kg/m3 | 1220.1 ± 1.7 kg/m3 | 1213.3 ± 1.7 kg/m3 |  |  |  |  |  |  | 
3 | O [water] + CCCCCCn1cc[n+](C)c1.[Br-] |  |  |  |  |  |  |  |  |  |  | 1.304 ± 0.012 mPa·s | 1.002 ± 0.01 mPa·s | 0.653 ± 0.007 mPa·s | 0.544 ± 0.005 mPa·s | 988 ± 0.1 kg/m3 | 0.467 ± 0.005 mPa·s | 983.2 ± 0.1 kg/m3
